“Also recorded” adds a separate entry of the source.
System: human PBMCs co-cultured with OVCAR8 cells
Assay: Co-culture of OVCAR8 cells and stimulated human PBMCs, 1:10 OVCAR8:PBMC ratio
Format: cell-based
Details: for Immunosuppressive effect (reduction in TNFα/cytokines) compared with controls rPD-L1 and MN_Null: 1:10 OVCAR8:PBMC co-culture, FIG. 10D; for TNFα levels / IL-2 levels: 1:10 OVCAR8:PBMC, 24 hours, vs untreated co-culture control; for TNFα levels: ELISA, FIG. 10C; for IL-2 levels: FIG. 10B
Method: For this model, PBMCs and cancer cells were both stimulated prior to co-culture to promote expression of PD-1 and PD-L1, respectively.
OVCAR8 cells, generously provided by the Gottesman Lab (National Institutes of Health, Bethesda, MD, USA), and MDA-MB-231 cells (American Type Culture Collection, Rockville, MD, USA) were cultured in Gibco RPMI 1640 media (ThermoFisher Scientific, Cat. No. 11-875-093) supplemented with 10% Gibco fetal bovine serum (ThermoFisher Scientific, Cat. No. 10437028), and 1% penicillin/streptomycin (10,000 U/mL pen, 10 mg/mL strcp) from MilliporeSigma (Burlington, MA, USA, Cat. No. P4333). Cells were cultured at 37° C. and 5% CO2. Passage number was kept below 3 for co-culture assay. Human peripheral blood mononuclear cells were purchased frozen from […] PBMCs were thawed according to manufacturer's instructions one day before co-culture and cultured in the same media and conditions as cancer cell lines.
The next day, cells were stimulated with 100 ng/mL IFNγ and two vials of human PBMCs were thawed. On Day 3, concentrations of PBMCs and OVCAR8 cells (harvested from a control well) were measured using the QuadCount Automated Cell Counter. The concentration of PBMCs required for a 1:10 OVCAR8:PBMC ratio was calculated from the OVCAR8 concentration. PBMCs were plated on a separate 24-well plate (1 mL/well) and stimulated with 5 μg/mL of anti-CD3 and 5 μg/mL of anti-CD28 for 30 minutes before drug treatment. […] After 30 minutes, media was removed from OVCAR8 wells without treatment, and replaced with 1 mL of treated PBMCs. After 24 hours, the supernatants were collected from each well, and centrifuged at 10,000×g for 5 minutes to remove any remaining cells.
Briefly, samples from co-culture experiments with excess OVCAR8 ratios were diluted 1:10 in assay buffer, and samples from co-culture experiments with excess PBMC ratios were diluted 1:5 in assay buffer. Next, 10 μL of the diluted samples were mixed with 10 μL of an IL-2 antibody-oligonucleotide conjugate mixture and added to a 96-well working plate. Samples with excess OVCAR8 ratios were allowed to incubate overnight at 4° C. Samples with excess PBMCs were allowed to incubate for 1 hour at room temperature. Next, 80 μL of qPCR reaction mixture containing master mix and DNA ligase was added to each well. The plate was centrifuged at 2,500×g for 2 minutes. Samples were then added in triplicate (20 μL/well) to a 96-well PCR plate (ThermoFisher Scientific). PCR was run according to manufacturer's instructions using the QuantStudio 7 Pro Real-Time PCR System equipped with a 96-well, 0.2 mL block from ThermoFisher Scientific.
Remaining samples from experiments with excess PBMC ratios were analyzed using TNFα (Cat. No. 430204) ELISA MAX Deluxe Sets (BioLegend, San Diego, CA, USA) according to manufacturer's instructions. Briefly, 96-well Nunc™ MaxiSorp™ ELISA Plates (BioLegend, Cat. No. 423501) were coated with capture antibodies for TNFα and incubated overnight at 4° C. The next day, the plate was washed 4× with 1×PBS+0.05% Tween-20 (PBS-T). To block non-specific binding, 200 μL of assay dilutant buffer was added to each well and the plate was incubated at room temperature for 1 hour on a shaker. The plate was washed as before, and 100 μL of the samples or standards were added to each well in triplicate and incubated at room temperature for 2 hours on a shaker. The plate was washed 4× and 100 μL of detection antibody for TNFα was added to each well, and the plate was incubated at room temperature for 1 hour on a shaker. The plate was washed 4× and 100 μL of Avidin-HRP was added to each well, and the plate was incubated at room temperature for 30 minutes on a shaker.

For CC[C@H](C)[C@@H]1NC(=O)[C@H](CCSC)NC(=O)[C@H](C)NC(=O)[C@H](CCCNC(=N)N)NC(=O)[C@@H](N)CSSC[C@@H](C(=O)O)NC(=O)[C@H]([C@@H](C)CC)NC(=O)[C@H](CCCNC(=N)N)N(C)C(=O)[C@H](CCCCN)NC(=O)[C@H](Cc2ccc(O)cc2)NC(=O)[C@H](CC(=O)O)NC(=O)[C@H](C)NC(=O)CNC(=O)CNC(=O)[C@H](Cc2ccc(O)cc2)NC(=O)[C@H](CO)NC1=O [SEQ ID NO. 5, CRAMISYGGADYKXIC], the “Immunosuppressive effect (reduction in TNFα/cytokines) compared with controls rPD-L1 and MN_Null” value (listed as MN 1.4) was “less potent than recombinant PD-L1”, the “Immunosuppressive effect (reduction in TNFα/cytokines) compared with controls rPD-L1 and MN_Null” value (listed as MN1.4) was “not a significant difference in cytokine levels between the MN1.4 and rPD-L1 treatment groups; also recorded: recapitulated the biological effects of full-length PD-L1; also recorded: the same reduction in TNFα as rPD-L1” and the TNFα levels (listed as MN 1.4) was “reduced in a dose-dependent manner”. For the same compound, the TNFα levels (listed as MN1.4) was “same pattern of T cell suppression was observed; also recorded: significantly decreased; also recorded: shown to decrease IL-2 and TNFα secretion; also recorded: A reduction in this cytokine was also observed”, the IL-2 levels (listed as MN 1.4) was “reduced in a dose-dependent manner” and the IL-2 levels (listed as MN1.4) was “same pattern of T cell suppression was observed; also recorded: significantly decreased; also recorded: shown to decrease IL-2 and TNFα secretion; also recorded: A dose-dependent reduction in IL-2 was observed”.
